# Assay results from ChEMBL document CHEMBL5625202, “Synthesis, characterization and anti-breast cancer activities of stachydrine derivatives” (Eur J Med Chem, 2023).
# Calls of active or inactive are those of the source. No cut-off for these calls is given here.
# What was measured:
# 4T1 [1] = test: Induction of apoptosis in mouse 4T1 cells assessed as apoptotic rate at 5000 micromol/L incubated for 24 hrs by Annexin-V/PI staining based flow cytometry relative to control; format: functional; details: dose 5000 µmol/L, at 5000 µM
# [2] = Toxicity in BALB/c mouse implanted with mouse 4T1 cells assessed as increase in monocytes at 0.2 mmol/Kg, po administered once every day for 14 days by routine blood analysis; format: organism-based; details: in vivo, 336 h, time 14 day
# [3] = Toxicity in BALB/c mouse implanted with mouse 4T1 cells assessed as increase in AST level at 0.2 mmol/Kg, po administered once every day for 14 days by routine blood analysis; format: organism-based; details: in vivo, 336 h, time 14 day
# [4] = Toxicity in BALB/c mouse implanted with mouse 4T1 cells assessed as change in heart histopathology at 0.2 mmol/Kg, po administered once every day for 14 days; format: organism-based; details: in vivo, 336 h, time 14 day
# 4T1 [5] = test: Induction of mitochondrial membrane potential loss in mouse 4T1 cells assessed as green fluorescence at 5000 uM incubated for 24 hrs by JC-1 staining based flow cytometric analysis (reference value: 11.7%); format: cell-based
# [6] = Toxicity in BALB/c mouse implanted with mouse 4T1 cells assessed as blurred spleen morphology at 0.2 mmol/Kg, po administered once every day for 14 days; format: organism-based; details: in vivo, 336 h, time 14 day
# 4T1 [7] = test: Induction of mitochondrial membrane potential loss in mouse 4T1 cells assessed as red fluorescence at 5000 uM incubated for 24 hrs by JC-1 staining based flow cytometric analysis (Rvb= 87.9%); format: cell-based
# [8] = Toxicity in BALB/c mouse implanted with mouse 4T1 cells assessed as effect on CREA level at 0.2 mmol/Kg, po administered once every day for 14 days by routine blood analysis; format: organism-based; details: in vivo, 336 h, time 14 day
# 4T1 [9] = test: Antitumor activity against mouse 4T1 cells implanted in BALB/c mouse assessed as change in tumor weight at 0.2 mmol/Kg, po administered once every day for 14 days; format: functional, organism-based; details: time 14.0 day
# 4T1 [10] = test: Antitumor activity against mouse 4T1 cells implanted in BALB/c mouse assessed as tumor cell necrosis at 0.2 mmol/Kg, po administered once every day for 14 days by histological staining based analysis; format: functional, organism-based; details: time 14.0 day
# 4T1 [11] = test: Induction of apoptosis in mouse 4T1 cells assessed as apoptotic rate at 2500 micromol/L incubated for 24 hrs by Annexin-V/PI staining based flow cytometry relative to control; format: functional; details: dose 2500 µmol/L, at 2500 µM
# [12] = Stability of the compound in Sprague-Dawley rat plasma at 10 mg/kg, po measured after 6 hrs by LC-MS/MS analysis; format: ADME, organism-based; details: in vivo
# [13] = Tmax in Sprague-Dawley rat plasma at 10 mg/kg, iv measured upto 6 hrs by LC-MS/MS analysis; format: ADME, organism-based
# [14] = Toxicity in BALB/c mouse implanted with mouse 4T1 cells assessed as splenic edema at 0.2 mmol/Kg, po administered once every day for 14 days; format: organism-based; details: in vivo, 336 h, time 14 day
# [15] = Toxicity in BALB/c mouse implanted with mouse 4T1 cells assessed as reduction in spleen index at 0.2 mmol/Kg, po administered once every day for 14 days relative to control; format: organism-based; details: in vivo, 336 h, time 14 day
# 4T1 [16] = test: Induction of apoptosis in mouse 4T1 cells assessed as increase in cleaved caspase-3 expression at 5 mM incubated for 24 hrs by Western blot analysis; format: functional, cell-based
# 4T1 [17] = test: Anticancer activity against mouse 4T1 cells assessed as inhibition of cell growth incubated for 24 hrs by CCK-8 assay; format: functional, cell-based; details: 4T1, 24 h
# [18] = Toxicity in BALB/c mouse implanted with mouse 4T1 cells assessed as increase in neutrophil granulocytes at 0.2 mmol/Kg, po administered once every day for 14 days by routine blood analysis; format: organism-based; details: in vivo, 336 h, time 14 day
# [19] = Half life in Sprague-Dawley rat plasma at 10 mg/kg, iv measured upto 6 hrs by LC-MS/MS analysis; format: ADME, organism-based
# [20] = Toxicity in BALB/c mouse implanted with mouse 4T1 cells assessed as increase in splenic red pulp at 0.2 mmol/Kg, po administered once every day for 14 days; format: organism-based; details: in vivo, 336 h, time 14 day
# [21] = Cmax in Sprague-Dawley rat plasma at 10 mg/kg, iv measured upto 6 hrs by LC-MS/MS analysis; format: ADME, organism-based
# 4T1 [22] = test: Induction of apoptosis in mouse 4T1 cells assessed as increase in pro-caspase-3 expression at 5 mM incubated for 24 hrs by Western blot analysis; format: functional, cell-based
# [23] = Toxicity in BALB/c mouse implanted with mouse 4T1 cells assessed as change in kidney histopathology at 0.2 mmol/Kg, po administered once every day for 14 days; format: organism-based; details: in vivo, 336 h, time 14 day
# 4T1 [24] = test: Induction of apoptosis in mouse 4T1 cells assessed as apoptotic rate at 10000 micromol/L incubated for 24 hrs by Annexin-V/PI staining based flow cytometry relative to control; format: functional; details: dose 10000 µmol/L, at 10000 µM
# [25] = Toxicity in BALB/c mouse implanted with mouse 4T1 cells assessed as change in lung histopathology at 0.2 mmol/Kg, po administered once every day for 14 days; format: organism-based; details: in vivo, 336 h, time 14 day
# [26] = Toxicity in BALB/c mouse implanted with mouse 4T1 cells assessed as increase in white blood cells at 0.2 mmol/Kg, po administered once every day for 14 days by routine blood analysis; format: organism-based; details: in vivo, 336 h, time 14 day
# 4T1 [27] = test: Induction of apoptosis in mouse 4T1 cells assessed as increase in Bax expression at 5 mM incubated for 24 hrs by Western blot analysis; format: functional, cell-based
# 4T1 [28] = test: Antitumor activity against mouse 4T1 cells implanted in BALB/c mouse assessed as tumor growth inhibition at 0.2 mmol/Kg, po administered once every day for 14 days relative to control; format: functional; details: 4T1, 336 h, time 14 day, read-out: TGI
# 4T1 [29] = test: Inhibition of cell migration in mouse 4T1 cells assessed as reduction in wound healing incubated for 24 hrs by microscopic analysis; format: functional, cell-based
# [30] = Oral bioavailability in Sprague-Dawley rat at 10 mg/kg measured upto 6 hrs by LC-MS/MS analysis; format: ADME, organism-based; details: in vivo
# [31] = Toxicity in BALB/c mouse implanted with mouse 4T1 cells assessed as change in liver histopathology at 0.2 mmol/Kg, po administered once every day for 14 days; format: organism-based; details: in vivo, 336 h, time 14 day
# 4T1 [32] = test: Induction of apoptosis in mouse 4T1 cells assessed as decrease in Bcl-2 expression at 5 mM incubated for 24 hrs by Western blot analysis; format: functional, cell-based
# [33] = Toxicity in BALB/c mouse implanted with mouse 4T1 cells assessed as increase in ALT level at 0.2 mmol/Kg, po administered once every day for 14 days by routine blood analysis; format: organism-based; details: in vivo, 336 h, time 14 day
# [34] = Toxicity in BALB/c mouse implanted with mouse 4T1 cells assessed as effect on BUN level at 0.2 mmol/Kg, po administered once every day for 14 days by routine blood analysis; format: organism-based; details: in vivo, 336 h, time 14 day
# [35] = Toxicity in BALB/c mouse implanted with mouse 4T1 cells assessed as increase in lymphocytes at 0.2 mmol/Kg, po administered once every day for 14 days by routine blood analysis; format: organism-based; details: in vivo, 336 h, time 14 day
# [36] = AUC (0 to t) in Sprague-Dawley rat plasma at 10 mg/kg, iv measured upto 6 hrs by LC-MS/MS analysis; format: ADME, organism-based
# [37] = Toxicity in BALB/c mouse implanted with mouse 4T1 cells assessed as body weight loss at 0.2 mmol/Kg, po administered once daily for 14 days; format: organism-based; details: in vivo, 336 h, time 14 day
# 4T1 [38] = test: Antitumor activity against mouse 4T1 cells implanted in BALB/c mouse assessed as tumor cell shrinkage at 0.2 mmol/Kg, po administered once every day for 14 days by histological staining based analysis; format: functional, organism-based; details: time 14.0 day
structure (smiles),measurement,setting,value
C[N+]1(C)CCCC1C(=O)[O-] (stereo not drawn),Activity,4T1 [1],28.09%
same,Activity,[2],Toxic
same,Activity,[3],Toxic
same,Activity,[4],Non-Toxic
same,Activity,4T1 [5],29.6%
same,Activity,[6],Toxic
same,Activity,4T1 [7],70.4%
same,Activity,[8],Non-Toxic
same,Activity,4T1 [9],Active
same,Activity,4T1 [10],Active
same,Activity,4T1 [11],20.38%
same,Stability,[12],Unstable
same,Tmax,[13],1.02 min
same,Activity,[14],Toxic
same,Activity,[15],Toxic
same,Activity,4T1 [16],inactive
same,IC50,4T1 [17],39 mM
same,Activity,[18],Toxic
same,half-life,[19],69.6 min
same,Activity,[20],Toxic
same,Cmax,[21],94.6 µg/mL
same,Activity,4T1 [22],inactive
same,Activity,[23],Non-Toxic
same,Activity,4T1 [24],32.47%
same,Activity,[25],Non-Toxic
same,Activity,[26],Toxic
same,Activity,4T1 [27],Active
same,inhibition in vivo at 200 µmol/kg,4T1 [28],3.89%
same,inhibition,4T1 [29],Dose-Dependent Effect
same,bioavailability,[30],100%
same,Activity,[31],Non-Toxic
same,Activity,4T1 [32],Active
same,Activity,[33],Toxic
same,Activity,[34],Non-Toxic
same,Activity,[35],Toxic
same,AUC(0-t) at 6 h,[36],18500 ng·h/mL
same,Activity,[37],Toxic
same,Activity,4T1 [38],Active
